Experimental findings from patent US6896892B2, “Insecticide-impregnated fabric and method of production” (The United States of America as represented by the …, priority 2000, dated 2005) are described below.

The term mortality denotes the share of the test organisms that died. A higher mortality goes with a strong lethal effect.

“Also recorded” adds a separate entry of the source.

Data set [1] deals with Anopheles gambiae mosquitoes (Kisumu [KIS] strain). The data set can be described thus: WHO cone bioassay of impregnated netting, knock-down and mortality, KIS strain. Type of data set: in vivo. Particulars: nets 500 mg/m^2 permethrin alone; after five wash/rinse cycles. The protocol: (§1) Insectary-reared and sugar-fed Anopheles gambiae mosquitoes (Kisumu [KIS], G3 and Asembo [AB] strains), 3-4 days old, were tested for susceptibility (or resistance) to permethrin-impregnated nets, using the WHO adult mosquito susceptibility test kit. About 20 mosquitoes were used in each assay. Cohort mosquitoes were then used to bioassay the pyrethroid-impregnated netting samples using the WHO cone bioassay with a 3 minute exposure time. During an assay, the cone was held on its side, which placed the net sample in a perpendicular or vertical position with respect to the floor, as is the case when testing an actual hanging net. In each assay 7-12 mosquitoes were used with 3-4 such assays run for each experiment. After exposure for the prescribed time, mortality was determined after the mosquitoes were held overnight (24 hours) in clean cartons with sugar water for nourishment. Final mortality was corrected for control mortality. Knock-down was defined as the number of mosquitoes alive or dead, present on the floor of the carton 30 minutes after exposure. Knock-down is considered to be a more accurate measurement of insecticide efficacy because in the wild any mosquito that falls to the ground serves almost immediately as food for other insects (e.g., ants). Temperature and humidity conducive to the survival of the mosquitoes were maintained.

Data set [2] relates to Anopheles gambiae mosquitoes (Asembo [AB] strain). As to the kind of experiment: WHO cone bioassay of impregnated netting, knock-down and mortality, AB strain. In kind it is in vivo. Particulars: nets 500 mg/m^2 permethrin alone; after one wash/rinse cycle. The protocol: as §1
Data set [3] deals with Anopheles gambiae mosquitoes (G3 strain). The data set can be described thus: WHO cone bioassay of impregnated netting, knock-down and mortality, G3 strain. Type of data set: in vivo. Particulars: nets 500 mg/m^2 permethrin alone; two wash/rinse cycles. The procedure: as §1
Data set [4] is described as follows: Wash/rinse cycles of netting samples, permethrin removed per cycle. In kind it is physicochemical. The protocol:
Netting samples were repeatedly washed and each wash and rinse solution was analyzed to determine the concentration of impregnated insecticide removed during each wash cycle. After several wash/rinse cycles, when the insecticidal efficacy had become depleted, the residual insecticide on the net was also determined.
A volume of 100 ml of a standardized detergent (2% aqueous sodium dodecyl sulfate [SDS]) was added to a 4 ounce wide mouth screw-cap bottle. An impregnated net sample (bioassayed beforehand) was folded twice and placed into the SDS solution, and the cap was applied and the bottle was shaken for 5 minutes on a mechanical shaker. After removing the cap, the net sample was removed, wrung out and placed in a 4 ounce bottle containing 100 ml of de-ionized water and shaken for five minutes, after which, the sample was removed, wrung out and left to dry overnight. The sample was rebioassayed the next day and at later times. To each wash solution was added a volume of 100 μl of the appropriate internal standard (IS) solution in acetone, and the contents were vigorously shaken by hand. To the rinse solution was added a 0.5 g quantity of dry SDS, and the contents were shaken to dissolve the SDS. Then a 100 μl volume of IS was added, and the contents were vigorously shaken. Two ml of each wash and rinse solution was then transferred to a 4 ml screw-cap vial, 3 ml of ethyl acetate were added and the contents were shaken. After centrifugation to clarify the ethyl acetate layer, about 1 ml of the ethyl acetate layer of each extract was transferred to an autosampler vial and injected onto the GC system described above to determine insecticide content.
For washing experiments involving permethrin, the wash and rinse solutions were injected directly onto a reversed-phase, high-performance liquid chromatographic system with ultraviolet (UV) detection, to determine the permethrin content of the solutions.

In data set [5] the test system is Anopheles gambiae mosquitoes (Kisumu [KIS], G3 and Asembo [AB] strains). The data set can be described thus: WHO cone bioassay of impregnated netting, all strains. In kind it is in vivo. The protocol: as §1

For the molecule `CC1(C)C(C=C(Cl)Cl)C1C(=O)OCc1cccc(Oc2ccccc2)c1` (stereo not drawn) [Permethrin Alone, permethrin], the results for the knock-down entry in data set [1] and in data set [3] were “less than 50%” and “approximately 20%”, respectively. The values for the mortality entry in data set [1] and in data set [3] were “approximately 20%” and about 10%, respectively. In data set [2], the “effectiveness (knock-down and mortality)” value is “completely ineffective; also recorded: all effectiveness with this strain was lost”. For the same molecule, in data set [4] (nets 500 or 1000 mg/m^2 permethrin alone), the “insecticide lost after the first washing” value is listed as 63-90%. Besides, the “Amt (%) washed off during a W/R cycle” value in data set [4] (permethrin alone 500 mg/m^2, W/R = 1) was 63.0%; in data set [4] (permethrin alone 500 mg/m^2, W/R = 2), 4.3%; in data set [4] (permethrin alone 500 mg/m^2, W/R = 3), 4.7%; in data set [4] (permethrin alone 500 mg/m^2, W/R = 4), 17.5%; in data set [4] (permethrin alone 500 mg/m^2, W/R = 5), 7.6%; in data set [4] (permethrin alone 500 mg/m^2, W/R = 6) it was 2.8%. Besides, the “Amt (%) washed off during a W/R cycle” value was found to be 90.7% in data set [4] (permethrin alone 1000 mg/m^2, W/R = 1); 2.4% in data set [4] (permethrin alone 1000 mg/m^2, W/R = 2); 0.9% in data set [4] (permethrin alone 1000 mg/m^2, W/R = 3); 0.9% in data set [4] (permethrin alone 1000 mg/m^2, W/R = 4). Also, the “effectiveness against all strains” value is recorded as “completely disappeared” in data set [5] (nets 500 mg/m^2 permethrin alone, six wash/rinse cycles) and “lost most of their effectiveness” in data set [5] (nets 1000 mg/m^2 permethrin alone, after four washings).
